Drawing on patent publication US20240270762A1, “PENICILLIN-BINDING PROTEIN INHIBITORS” (priority 2021, published 2024), this text covers MIC and EC50 for ten compounds.

One assay relates to A. baumannii CDC-0033. Briefly: microbe, parasite or virus in culture. It is filed as cell-based. The conditions noted are these: Acinetobacter baumannii, CDC0033, read-out: MIC, A. baumannii CDC-0033.
For a further assay, the system named is A. baumannii ATCC 19606. Kind of assay: microbe, parasite or virus in culture. The format is cell-based. The conditions noted are these: Acinetobacter baumannii, ATCC19606, read-out: MIC, A. baumannii ATCC 19606.
Assay [1] deals with T1, PBP3 from Escherichia coli (K-12) (Escherichia coli, UniProt P0AD68).
T1 construct: made in house
T1 sequence (P0AD68 1-577): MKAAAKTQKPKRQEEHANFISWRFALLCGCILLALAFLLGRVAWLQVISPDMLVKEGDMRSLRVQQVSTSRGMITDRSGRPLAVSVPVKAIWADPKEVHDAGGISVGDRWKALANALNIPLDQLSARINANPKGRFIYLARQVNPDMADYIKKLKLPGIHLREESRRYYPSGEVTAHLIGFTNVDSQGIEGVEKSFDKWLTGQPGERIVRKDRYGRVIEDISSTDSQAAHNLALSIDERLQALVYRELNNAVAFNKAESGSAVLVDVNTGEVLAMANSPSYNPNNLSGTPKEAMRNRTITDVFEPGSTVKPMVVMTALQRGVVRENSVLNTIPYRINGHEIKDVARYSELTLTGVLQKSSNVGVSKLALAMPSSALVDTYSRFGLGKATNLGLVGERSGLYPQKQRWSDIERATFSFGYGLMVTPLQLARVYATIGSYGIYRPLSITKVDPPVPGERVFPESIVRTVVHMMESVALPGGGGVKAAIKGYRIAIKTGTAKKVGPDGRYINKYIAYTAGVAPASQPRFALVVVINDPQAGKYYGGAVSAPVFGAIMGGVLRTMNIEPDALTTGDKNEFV
Kind of assay: Bocillin-FL fluorescence polarization competition binding, E. coli PBP3. An outline of the steps:
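Purified PBP was preincubated with inhibitor (E. coli PBP3 1.5 μM, 30 min; P. aeruginosa PBP3 0.75 μM, A. baumannii PBP3 0.2 μM and PBP1a 1 μM, 15 min), then Bocillin-FL (0.1 μM; 0.05 μM for PBP1a) added and FP read up to 60 min. EC50 = 50% loss of bound probe.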

For a further assay, the system named is P. aeruginosa CDC-0095. Kind of assay: microbe, parasite or virus in culture. The format is cell-based. The note with it: Pseudomonas aeruginosa, CDC0095, read-out: Minimum inhibitory concentration, P. aeruginosa CDC-0095.
A further assay has as its target T2, A. baumannii PBP1a (Acinetobacter baumannii, UniProt A0ABX6CK30).
T2 sequence (A0ABX6CK30 1-851): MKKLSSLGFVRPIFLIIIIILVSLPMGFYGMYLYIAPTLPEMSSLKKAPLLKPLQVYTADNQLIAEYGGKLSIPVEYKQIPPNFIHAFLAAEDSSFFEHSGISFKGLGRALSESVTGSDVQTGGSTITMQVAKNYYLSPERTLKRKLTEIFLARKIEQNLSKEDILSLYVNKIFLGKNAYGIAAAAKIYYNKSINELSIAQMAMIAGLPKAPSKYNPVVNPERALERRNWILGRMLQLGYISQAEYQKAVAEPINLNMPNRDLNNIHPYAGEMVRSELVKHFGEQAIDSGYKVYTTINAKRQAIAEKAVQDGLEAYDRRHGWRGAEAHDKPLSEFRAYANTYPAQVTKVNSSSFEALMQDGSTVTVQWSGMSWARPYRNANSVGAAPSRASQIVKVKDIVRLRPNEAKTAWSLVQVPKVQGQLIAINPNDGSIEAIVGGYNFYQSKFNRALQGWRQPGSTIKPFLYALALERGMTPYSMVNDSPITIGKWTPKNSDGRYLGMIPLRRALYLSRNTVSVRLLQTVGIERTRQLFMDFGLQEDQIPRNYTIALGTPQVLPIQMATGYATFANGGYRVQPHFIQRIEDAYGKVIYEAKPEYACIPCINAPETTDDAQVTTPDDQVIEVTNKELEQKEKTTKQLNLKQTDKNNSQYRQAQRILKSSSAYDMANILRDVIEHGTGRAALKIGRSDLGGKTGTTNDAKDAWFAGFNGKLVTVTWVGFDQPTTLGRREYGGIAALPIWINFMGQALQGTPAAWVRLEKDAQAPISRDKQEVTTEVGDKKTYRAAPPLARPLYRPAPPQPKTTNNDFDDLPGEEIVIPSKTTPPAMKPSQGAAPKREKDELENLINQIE
Kind of assay: Bocillin-FL competition binding via gel filtration, A. baumannii PBP1a. The conditions noted are these: competition binding assay using Bocillin-FL via gel filtration; read-out: A. baumannii PBP1a Potency. The method, boiled down: (§1)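 Competitive equilibrium binding with Bocillin-FL reporter: PBP pre-incubated with inhibitor dilutions, Bocillin-FL added, 15 min incubation. Labelled enzyme isolated by size-exclusion spin plates, fluorescence measured; EC50 obtained by fitting bound fraction against inhibitor concentration with a Hill-coefficient model.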
On the technique in general: In gel filtration, larger molecules generally elute earlier.

The target of a further assay is A. baumannii PBP2 (Acinetobacter baumannii, UniProt D0C8Z9). Briefly: Bocillin-FL competition binding via gel filtration, A. baumannii PBP2. The method, boiled down:
as §1

Converted amounts (≈) assume the structure as drawn.

Chain of A. baumannii PBP2 (D0C8Z9 whole entry): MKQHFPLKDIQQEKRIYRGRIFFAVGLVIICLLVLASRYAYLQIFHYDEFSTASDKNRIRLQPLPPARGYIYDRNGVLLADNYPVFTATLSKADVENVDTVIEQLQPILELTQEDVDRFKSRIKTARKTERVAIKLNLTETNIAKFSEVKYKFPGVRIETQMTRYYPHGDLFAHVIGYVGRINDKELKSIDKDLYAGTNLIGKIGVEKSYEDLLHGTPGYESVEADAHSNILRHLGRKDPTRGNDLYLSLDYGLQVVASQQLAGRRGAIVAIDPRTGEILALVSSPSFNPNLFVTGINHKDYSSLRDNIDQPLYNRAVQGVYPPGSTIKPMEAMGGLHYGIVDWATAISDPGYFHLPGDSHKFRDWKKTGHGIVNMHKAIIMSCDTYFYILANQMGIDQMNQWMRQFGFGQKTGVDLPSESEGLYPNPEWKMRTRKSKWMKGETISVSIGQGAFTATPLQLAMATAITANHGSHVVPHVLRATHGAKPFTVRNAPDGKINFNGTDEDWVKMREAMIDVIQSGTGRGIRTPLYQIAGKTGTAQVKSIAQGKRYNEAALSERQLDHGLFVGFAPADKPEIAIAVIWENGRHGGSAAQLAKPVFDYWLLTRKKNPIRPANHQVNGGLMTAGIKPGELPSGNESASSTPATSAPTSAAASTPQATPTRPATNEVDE

Regarding `Cc1cnccc1C(=O)NCCCN1CCN(C(=O)NC(C(=O)N[C@H]2Cc3ccc(F)c(C(=O)O)c3OB2O)c2cc(F)c(O)c(O)c2Cl)C(=O)C1=O` (stereo partly drawn) [Example 297, (3R)-3-(2-(2-chloro-5-fluoro-3,4-dihydroxyphenyl)-2-(4-(3-(3-methylisonicotinamido)propyl)-2,3-dioxopiperazine-1-carboxamido)acetamido)-7-fluoro-2-hydroxy-3,4-dihydro-2H-benzo[e][1,2]oxaborinine-8-carboxylic acid], the MIC is 2 to 4 µg/mL (≈ 2.64 to 5.27 µM) with A. baumannii CDC-0033, less than 1 µg/mL in the assay with A. baumannii ATCC 19606 and less than 1 µg/mL in the assay with P. aeruginosa CDC-0095. In addition, the EC50 in assay [1] is less than 10 µM; on A. baumannii PBP1a, 10 to 50 µM; on A. baumannii PBP2, 10 to 50 µM.
On to `Cc1cc(C(=O)NCCCN2CCN(C(=O)N[C@@H](C(=O)N[C@H]3Cc4ccc(F)c(C(=O)O)c4OB3O)c3cc(F)c(O)c(O)c3Cl)C(=O)C2=O)ccn1` [Example 298, (R)-3-((R)-2-(2-chloro-5-fluoro-3,4-dihydroxyphenyl)-2-(4-(3-(2-methylisonicotinamido)propyl)-2,3-dioxopiperazine-1-carboxamido)acetamido)-7-fluoro-2-hydroxy-3,4-dihydro-2H-benzo[e][1,2]oxaborinine-8-carboxylic acid], for which the MIC was 2 to 4 µg/mL (≈ 2.64 to 5.27 µM) with A. baumannii CDC-0033, less than 1 µg/mL in the assay with A. baumannii ATCC 19606 and less than 1 µg/mL in the assay with P. aeruginosa CDC-0095. Besides, the EC50 is less than 10 µM in assay [1], 10 to 50 µM on A. baumannii PBP1a and 10 to 50 µM at A. baumannii PBP2.
Turning to `O=C(NCCCN1CCN(C(=O)NC(C(=O)N[C@H]2Cc3ccc(F)c(C(=O)O)c3OB2O)c2cc(F)c(O)c(O)c2Cl)C(=O)C1=O)c1ccc(O)c(Cl)c1` (stereo partly drawn) [Example 305, (3R)-3-(2-(4-(3-(3-chloro-4-hydroxybenzamido)propyl)-2,3-dioxopiperazine-1-carboxamido)-2-(2-chloro-5-fluoro-3,4-dihydroxyphenyl)acetamido)-7-fluoro-2-hydroxy-3,4-dihydro-2H-benzo[e][1,2]oxaborinine-8-carboxylic acid], the MIC is 2 to 4 µg/mL (≈ 2.52 to 5.04 µM) in the assay with A. baumannii CDC-0033, less than 1 µg/mL in the assay with A. baumannii ATCC 19606 and 2 to 4 µg/mL (≈ 2.52 to 5.04 µM) in the assay on P. aeruginosa CDC-0095. Besides, the EC50 (in assay [1]; on A. baumannii PBP1a; at A. baumannii PBP2) was less than 10 µM each time.
For the compound `O=C(NCCCN1CCN(C(=O)NC(C(=O)N[C@H]2Cc3ccc(F)c(C(=O)O)c3OB2O)c2cc(F)c(O)c(O)c2Cl)C(=O)C1=O)c1ccc(O)c(F)c1F` (stereo partly drawn) [Example 306, (3R)-3-(2-(2-chloro-5-fluoro-3,4-dihydroxyphenyl)-2-(4-(3-(2,3-difluoro-4-hydroxybenzamido)propyl)-2,3-dioxopiperazine-1-carboxamido)acetamido)-7-fluoro-2-hydroxy-3,4-dihydro-2H-benzo[e][1,2]oxaborinine-8-carboxylic acid], the MIC is 2 to 4 µg/mL (≈ 2.51 to 5.03 µM) in the assay with A. baumannii CDC-0033, less than 1 µg/mL in the assay on A. baumannii ATCC 19606 and less than 1 µg/mL in the assay with P. aeruginosa CDC-0095. For the same compound, the EC50 (in assay [1]; on A. baumannii PBP1a; at A. baumannii PBP2) was less than 10 µM throughout.
`O=C(NCCCN1CCN(C(=O)NC(C(=O)N[C@H]2Cc3ccc(F)c(C(=O)O)c3OB2O)c2cc(F)c(O)c(O)c2Cl)C(=O)C1=O)c1ccc(O)cc1O` (stereo partly drawn) [Example 307, (3R)-3-(2-(2-chloro-5-fluoro-3,4-dihydroxyphenyl)-2-(4-(3-(2,4-dihydroxybenzamido)propyl)-2,3-dioxopiperazine-1-carboxamido)acetamido)-7-fluoro-2-hydroxy-3,4-dihydro-2H-benzo[e][1,2]oxaborinine-8-carboxylic acid]: the MIC with A. baumannii CDC-0033 is 2 to 4 µg/mL (≈ 2.58 to 5.16 µM); in the assay on A. baumannii ATCC 19606, less than 1 µg/mL; in the assay with P. aeruginosa CDC-0095 it was less than 1 µg/mL. The EC50 (in assay [1]; on A. baumannii PBP1a; on A. baumannii PBP2) was less than 10 µM each time.
Take `O=C(O)c1c(F)ccc2c1OB(O)[C@@H](NC(=O)C(NC(=O)N1CCN(C3CCN(C(=O)c4c(F)ccc(O)c4F)CC3)C(=O)C1=O)c1cc(F)c(O)c(O)c1Cl)C2` (stereo partly drawn) [Example 308, (3R)-3-(2-(2-chloro-5-fluoro-3,4-dihydroxyphenyl)-2-(4-(1-(2,6-difluoro-3-hydroxybenzoyl)piperidin-4-yl)-2,3-dioxopiperazine-1-carboxamido)acetamido)-7-fluoro-2-hydroxy-3,4-dihydro-2H-benzo[e][1,2]oxaborinine-8-carboxylic acid]: the results for the MIC with A. baumannii CDC-0033, in the assay with A. baumannii ATCC 19606 and in the assay with P. aeruginosa CDC-0095 were 2 to 4 µg/mL (≈ 2.43 to 4.87 µM), less than 1 µg/mL and 2 to 4 µg/mL (≈ 2.43 to 4.87 µM), respectively. For the same compound, the EC50 in assay [1] was less than 10 µM; on A. baumannii PBP1a, 10 to 50 µM; at A. baumannii PBP2, less than 10 µM.
For `O=C(O)c1c(F)ccc2c1OB(O)[C@@H](NC(=O)C(NC(=O)N1CCN(C3CCN(C(=O)c4cc(O)cc(O)c4)CC3)C(=O)C1=O)c1cc(F)c(O)c(O)c1Cl)C2` (stereo partly drawn) [Example 309, (3R)-3-(2-(2-chloro-5-fluoro-3,4-dihydroxyphenyl)-2-(4-(1-(3,5-dihydroxybenzoyl)piperidin-4-yl)-2,3-dioxopiperazine-1-carboxamido)acetamido)-7-fluoro-2-hydroxy-3,4-dihydro-2H-benzo[e][1,2]oxaborinine-8-carboxylic acid], the MIC in the assay on A. baumannii CDC-0033 was 2 to 4 µg/mL (≈ 2.49 to 4.99 µM); in the assay on A. baumannii ATCC 19606, less than 1 µg/mL; with P. aeruginosa CDC-0095 it was 2 to 4 µg/mL (≈ 2.49 to 4.99 µM). In addition, the EC50 was less than 10 µM in assay [1], 10 to 50 µM on A. baumannii PBP1a and less than 10 µM at A. baumannii PBP2.
As to `CN(CCCN1CCN(C(=O)NC(C(=O)N[C@H]2Cc3ccc(F)c(C(=O)O)c3OB2O)c2cc(F)c(O)c(O)c2Cl)C(=O)C1=O)C(=O)c1cccc(O)c1` (stereo partly drawn) [Example 310, (3R)-3-(2-(2-chloro-5-fluoro-3,4-dihydroxyphenyl)-2-(4-(3-(3-hydroxy-N-methylbenzamido)propyl)-2,3-dioxopiperazine-1-carboxamido)acetamido)-7-fluoro-2-hydroxy-3,4-dihydro-2H-benzo[e][1,2]oxaborinine-8-carboxylic acid], the values for the MIC in the assay with A. baumannii CDC-0033, with A. baumannii ATCC 19606 and with P. aeruginosa CDC-0095 were 2 to 4 µg/mL (≈ 2.58 to 5.17 µM), less than 1 µg/mL and 2 to 4 µg/mL (≈ 2.58 to 5.17 µM), respectively. In addition, the EC50 in assay [1] is less than 10 µM; on A. baumannii PBP1a, 50 to 250 µM; on A. baumannii PBP2, 10 to 50 µM.
For the compound `O=C(NCCCN1CCN(C(=O)NC(C(=O)N[C@H]2Cc3ccc(F)c(C(=O)O)c3OB2O)c2cc(F)c(O)c(O)c2Cl)C(=O)C1=O)c1ccncc1F` (stereo partly drawn) [Example 400, (3R)-3-(2-(2-chloro-5-fluoro-3,4-dihydroxyphenyl)-2-(4-(3-(3-fluoroisonicotinamido)propyl)-2,3-dioxopiperazine-1-carboxamido)acetamido)-7-fluoro-2-hydroxy-3,4-dihydro-2H-benzo[e][1,2]oxaborinine-8-carboxylic acid], the MIC in the assay with A. baumannii CDC-0033 was 2 to 4 µg/mL (≈ 2.62 to 5.24 µM); in the assay with A. baumannii ATCC 19606, less than 1 µg/mL; with P. aeruginosa CDC-0095, 2 to 4 µg/mL (≈ 2.62 to 5.24 µM). For the same compound, the EC50 in assay [1] is less than 10 µM; at A. baumannii PBP1a, 10 to 50 µM; on A. baumannii PBP2, 10 to 50 µM.
Turning to `O=C(NCCCN1CCN(C(=O)NC(C(=O)N[C@H]2Cc3ccc(F)c(C(=O)O)c3OB2O)c2cc(F)c(O)c(O)c2Cl)C(=O)C1=O)c1c(F)cncc1F` (stereo partly drawn) [Example 402, (3R)-3-(2-(2-chloro-5-fluoro-3,4-dihydroxyphenyl)-2-(4-(3-(3,5-difluoroisonicotinamido)propyl)-2,3-dioxopiperazine-1-carboxamido)acetamido)-7-fluoro-2-hydroxy-3,4-dihydro-2H-benzo[e][1,2]oxaborinine-8-carboxylic acid], the MIC with A. baumannii CDC-0033 was 2 to 4 µg/mL (≈ 2.56 to 5.12 µM); in the assay on A. baumannii ATCC 19606 it was less than 1 µg/mL; in the assay on P. aeruginosa CDC-0095, less than 1 µg/mL. Besides, the figures for the EC50 (in assay [1]; on A. baumannii PBP1a; on A. baumannii PBP2) were less than 10 µM, less than 10 µM and 10 to 50 µM, respectively.
